Reference: publication PMC7426420, “Cupid, a cell permeable peptide derived from amoeba, capable of delivering GFP into a diverse range of species” (Scientific Reports, 2020)

Tested on: Dictyostelium discoideum AX2 strain cells
Experiment: Cell penetration into Dictyostelium amoeba cells, fluorescence microscopy of fixed cells
Type: cell-based
Settings: 10 µM, 60 min in buffer, washed 3 times, fixed with Fluorsave, green fluorescent filter; GFP proteins denatured, non-fluorescent when added
Description: Dictyostelium discoideum AX2 strain cells were grown on Klebsiella aerogenes plates. For experimentation, cells at the growth zone were collected and washed 5 times with 10 mM potassium phosphate buffer, pH 7.2 and seeded in slide chambers at a density of 10^5 cells/mL. Cells were incubated with FITC-labelled Cupid, Cupid-GFP or H-GFP at the doses indicated for 60 min, washed 3 times in buffer and fixed in situ using Fluorsave (Calbiochem, UK) under a coverslip. Cell microscopy was performed on an upright fluorescence microscope (Olympus BX61) with the green fluorescent filter set, coupled with a digital camera.

Row | Substance | cells become fluorescent (cell-penetrating capability)
1 | RRVQIWFQNKRAKVKR [F-Cupid] | caused the cells to become fluorescent
2 | fluorescein-labelled BSA: fluorescein-labelled BSA control (data not shown) | did not
